The test system of assay [1] is mice with ischemic AKI (bilateral renal IRI). The assay can be described thus: Renal IRI model: oxidative stress (MDA in kidney tissue). The format is in vivo, C57/BL6 mice. Conditions: single pre-IRI dose; vehicle peaked at 2 h at 48%. Here is the method: Reactive oxygen species (ROS) levels were determined by measurement of malondialdehyde (MDA), the end product of lipid peroxidation in kidney lysates. Free MDA reacts with thiobarbituric acid (TBA) at 95° C. to generate an MDA-TBA adduct, which can be quantified colorimetrically at a wavelength of 532 nm. MDA levels were measured in kidney lysates using a lipid peroxidation (MDA) assay kit (Abcam, Cambridge, UK). Results were corrected for total protein level and are expressed as […].

For assay [2] the test system is unchanged. Description: Renal IRI model: renal vasodilation and renal Doppler flux (RBF). In kind it is in vivo, C57/BL6 mice. How it is done: The inner arteriolar area of the outer medulla was determined using α-smooth muscle actin (α-SMA)-stained sections. Kidneys were removed without perfusion under inhalational isoflurane anesthesia, divided into three pieces horizontally, immediately fixed in 10% formalin, and then embedded in paraffin. The inner area of α-SMA-positive vessels in the outer medulla was measured using ImageJ. The results are expressed as average areas of renal arteries in the outer medulla. As a surrogate for RBF, we used noninvasive laser Doppler flowmetry (periflux system 5000, Perimed) to measure flux, placing laser-Doppler probes at a fixed position on the kidney surface and recording renal cortical measurements. […] The relative increase represents the percent increase in RDF from baseline to peak for each test.

In assay [3] the test system is endogenous PGE2 levels in kidney tissue. The assay can be described thus: Renal PGE2 levels after intraperitoneal injection in mice (Example 1). The format is in vivo. How it is done:
[…] Protein concentrations of supernatant were determined by BCA assay (ThermoFisher Scientific, Rockford, IL). The PGE2 level was measured using a PGE2 ELISA kit (R&D Systems, Minneapolis, MN) in triplicate. PGE2 levels were expressed as nanograms of PGE2 per milligram of protein. Renal function was assessed by determining the serum levels of blood urea nitrogen (BUN; Abcam), serum creatinine (Agilent 6410 LC-MS/MS, Agilent, Santa Clara, CA), lipocalin-2 (R&D Systems), and kidney injury molecule-1 (KIM-1; R&D Systems) after reperfusion for 24 h. Measurement of serum creatinine was by HPLC. Serum creatinine was assessed using an Agilent 6410 LC-MS/MS system coupled with an Agilent 1200 series HPLC system (Agilent). The sample preparation for serum creatinine was that 50 μL of serum samples were mixed with 100 μL of acetonitrile that contained creatinine-d3 as an internal standard (5 μg/mL). The mixture was centrifuged at 13,000 rpm for 10 min after vigorous vortex, and 1 μL of supernatant was then injected into the LC-MS/MS system. The chromatography separation was performed on a Hypersil GOLD C18 column (150×2.1 mm, 3 m, Thermo Scientific) using a mobile phase of 0.1% formic acid solution and acetonitrile [70:30 (vol/vol)]. The flow rate was 0.2 mL/min. […] The multiple-reaction monitoring mode using specific precursor/production transition was used for quantification. […]

Assay [4] has as its system contrast-induced acute kidney injury (CIAKI) mice. The assay can be described thus: CIAKI mouse model: necrotic and apoptotic cell death, gross findings. In kind it is in vivo, C57/BL6 mice. As to conditions: 48 h after CM. How it is done: Kidneys were harvested at 48 h after the CM injection, fixed in 4% phosphate-buffered formalin, and embedded in paraffin. To evaluate necrosis, […] paraffin sections were stained with hematoxylin and eosin. Tubular injury was scored semi-quantitatively according to a system by a pathologist who examined at least 20 separate fields (400× magnification) in the outer medulla, which is the zone most sensitive to ischemic injury. The scoring system was as follows: 0, no damage; 1, patchy isolated unicellular necrosis; 2, tubular necrosis <25%; 3, tubular necrosis 25-50%; and 4, tubular necrosis >50%. At least 20 consecutive high-power fields per section were scored by two operators blind to the details of the experiment. To analyze the frequency of apoptosis, […] paraffin sections were subjected to terminal deoxynucleotidyl transferase-mediated dUTP nick-end labeling (TUNEL) assay (Millipore, Temecula, CA, USA) according to the manufacturer's protocol. Four […] paraffin sections were incubated with the TUNEL reaction mixture at 37° C. for 1 h, followed by incubation with a horseradish peroxidase-conjugated detection antibody. The signals were visualized using diaminobenzidine (Sigma-Aldrich). After counterstaining with Mayer's hematoxylin, TUNEL-positive cells were counted in at least five separate fields (640× magnification) in the outer medulla, and the apoptosis index (%, number of apoptosis cells/total number of cells) was calculated using GENASIS software.

On to `CCCC[S+]([O-])c1sc2nc(-c3cccs3)cc(-c3ccccc3)c2c1N` (stereo not shown) [SW033291], for which the “MDA increase above baseline after renal IRI” value in assay [1] was 14%. Moreover, the “RDF-inferred RBF” value is “completely preserved” in assay [2] (24 h following IRI) and “increased inferred RBF above baseline” in assay [2] (within 1 h after the first injection, just before AKI). For the same compound, the “renal arteriolar area in the outer medulla” value in assay [2] (24 h post-IRI, vs post-IRI vehicle and sham mice) is given as “significantly increased”. In addition, the “protection from reduction of RDF-inferred RBF” value in assay [2] (single dose 1 h before IRI (Pre) vs Pre+Post) is recorded as “somewhat less protection”. In assay [3] (1 h after intraperitoneal 5 mg/kg), the “endogenous renal PGE2 (peak)” value is “tripling”. For the same compound, in assay [3] (3 h after intraperitoneal injection of 2.5 or 5 mg/kg), the “renal PGE2” value was “dose-dependent increase”. Moreover, the “vascular congestion in the outer medullary region (gross findings)” value in assay [4] is given as “less-congested”. The “proportion of TUNEL-positive cells” value in assay [4] (CM + drug) amounted to 24.01±2.90%. In addition, the “microscopic renal injury score” value in assay [4] (CM + drug, score 0-4) was 0.53±0.16.

For the origin of these results see patent publication US12616681B2, “Compositions and methods for treating renal injury” (priority 2019, dated 2026).
